Where a name gives a salt, the structure may show the parent alone.

This is an account of results in US11518739B2, “Sulfonamide carboxamide compounds” (Inflazome Limited, priority 2017, dated 2022).

The target of experiment [1] is T1, NLRP3 (Homo sapiens, UniProt Q96P20). Nature of the experiment: Human whole blood IL-1β release assay (LPS + nigericin, AlphaLisa). It is filed as cell-based. Also noted: Plate out 80 μl of whole blood containing 1 μg/ml of LPS in 96-well, clear bottom cell culture plate; from tissue; host or cells: human whole blood from healthy donors (Li-heparin). The note with it: NLRP3 inhibitory activity in human whole blood, 1 μg/ml LPS, 10 μM nigericin, read-out: HWB IC50. How it is done:
For systemic delivery, the ability to inhibit NLRP3 when the compounds are present within the bloodstream is of great importance. For this reason, the NLRP3 inhibitory activity of a number of compounds in human whole blood was investigated in accordance with the following protocol.
Human whole blood in Li-heparin tubes was obtained from healthy donors from a volunteer donor panel. • 1. Plate out 80 μl of whole blood containing 1 μg/ml of LPS in 96-well, clear bottom cell culture plate (Corning #3585) • 2. Add 10 μl compound (8 points half-log dilution with 10 μM top dose) or vehicle (DMSO 0.1% FAC) to the appropriate wells • 3. Incubate for 3 hrs at 37° C., 5% CO2 • 4. Add 10 μl nigericin (Sigma #N7143) (10 μM FAC) to all wells • 5. Incubate for 1 hr at 37° C., 5% CO2 • 6. At the end of the incubation period, spin plates at 300×g for 5 mins to pellet cells and remove 20 μl of supernatant and add to 96-well v-bottom plates for IL-1β analysis (note: these plates containing the supernatants can be stored at −80° C. to be analysed at a later date) • 7. IL-1β was measured according to the manufacturer protocol (Perkin Elmer-AlphaLisa IL-1 Kit AL220F-5000) • 8. IC50 data is fitted to a non-linear regression equation (log inhibitor vs response-variable slope 4-parameters)

Experiment [2] concerns the target T1, NLRP3. Put plainly: THP-1 cells pyroptosis assay (LPS-primed, nigericin-triggered, resazurin readout). It counts as cell-based. Also noted: Seed THP-1 cells (25,000 cells/well) containing 1.0 μg/ml LPS in 40 μl of RPMI medium; host or cells: THP-1 cells, LPS-primed, nigericin-triggered. The note with it: NLRP3 inhibitory activity in THP-1 cells, 1.0 μg/ml LPS, 5 μM nigericin. How it is done: THP-1 cells (ATCC #TIB-202) were grown in RPMI containing L-glutamine (Gibco #11835) supplemented with ImM sodium pyruvate (Sigma #S8636) and penicillin (100 units/ml)/streptomycin (0.1 mg/ml) (Sigma #P4333) in 10% Fetal Bovine Serum (FBS) (Sigma #F0804). The cells were routinely passaged and grown to confluency ([…]). On the day of the experiment, THP-1 cells were harvested and resuspended into RPMI medium (without FBS). The cells were then counted and viability (>90%) checked by Trypan blue (Sigma #T8154). Appropriate dilutions were made to give a concentration of 625,000 cells/ml. To this diluted cell solution was added LPS (Sigma #L4524) to give a 1 μg/ml Final Assay Concentration (FAC). […] of the final preparation was aliquoted into each well of a 96-well plate. The plate thus prepared was used for compound screening.
The following method step-by-step assay was followed for compound screening. • 1. Seed THP-1 cells (25,000 cells/well) containing 1.0 μg/ml LPS in 40 μl of RPMI medium (without FBS) in 96-well, black walled, clear bottom cell culture plates coated with poly-D-lysine (VWR #734-0317) • 2. Add 5 μl compound (8 points half-log dilution, with 10 μM top dose) or vehicle (DMSO 0.1% FAC) to the appropriate wells • 3. Incubate for 3 hrs at 37° C. in 5% CO2 • 4. Add 5 μl nigericin (Sigma #N7143) (FAC 5 μM) to all wells • 5. Incubate for 1 hr at 37° C. and 5% CO2 • 6. At the end of the incubation period, spin plates at 300×g for 3 mins and remove supernatant • 7. Then add 50 μl of resazurin (Sigma #R7017) (FAC 100 μM resazurin in RPMI medium without FBS) and incubate plates for a further 1-2 hrs at 37° C. and 5% CO2 • 8. Plates were read in an Envision reader at Ex 560 nm and Em 590 nm • 9. IC50 data is fitted to a non-linear regression equation (log inhibitor vs response-variable slope 4-parameters)
(The colour change of resazurin is a common sign of viable cells or microbes.)

T1 sequence (Q96P20 whole entry): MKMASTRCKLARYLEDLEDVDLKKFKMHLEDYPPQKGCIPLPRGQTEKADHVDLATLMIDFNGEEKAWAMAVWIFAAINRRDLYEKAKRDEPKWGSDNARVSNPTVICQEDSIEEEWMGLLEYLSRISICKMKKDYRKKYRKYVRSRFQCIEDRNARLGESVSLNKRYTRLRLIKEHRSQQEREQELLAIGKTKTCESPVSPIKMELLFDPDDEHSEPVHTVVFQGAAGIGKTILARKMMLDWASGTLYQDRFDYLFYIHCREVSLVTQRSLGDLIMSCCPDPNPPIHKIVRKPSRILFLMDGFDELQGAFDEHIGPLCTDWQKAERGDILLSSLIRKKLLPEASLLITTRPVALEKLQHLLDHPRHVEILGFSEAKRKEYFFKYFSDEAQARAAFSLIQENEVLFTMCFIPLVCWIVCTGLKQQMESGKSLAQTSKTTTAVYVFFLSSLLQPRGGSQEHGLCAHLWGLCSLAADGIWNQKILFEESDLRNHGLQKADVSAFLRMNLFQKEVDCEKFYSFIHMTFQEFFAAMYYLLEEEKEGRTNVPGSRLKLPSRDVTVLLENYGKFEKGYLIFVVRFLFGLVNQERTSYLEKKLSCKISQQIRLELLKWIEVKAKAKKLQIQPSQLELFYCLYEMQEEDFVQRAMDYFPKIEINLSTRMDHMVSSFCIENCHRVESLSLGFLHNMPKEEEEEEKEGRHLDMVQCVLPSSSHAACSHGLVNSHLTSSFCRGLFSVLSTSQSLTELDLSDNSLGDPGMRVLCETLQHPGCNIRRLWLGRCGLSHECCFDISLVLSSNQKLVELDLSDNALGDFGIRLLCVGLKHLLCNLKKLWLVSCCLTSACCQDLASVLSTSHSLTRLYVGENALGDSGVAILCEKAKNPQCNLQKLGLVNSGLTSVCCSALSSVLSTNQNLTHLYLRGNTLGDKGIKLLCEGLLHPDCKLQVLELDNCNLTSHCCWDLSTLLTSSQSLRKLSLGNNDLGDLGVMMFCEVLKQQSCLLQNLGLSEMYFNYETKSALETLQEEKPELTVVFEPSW

One may read the IC50 as the point on the concentration scale where inhibition reaches its midpoint. In the case of `O=C(Nc1c2c(cc3c1CCC3)CCC2)NS(=O)(=O)Cc1ccccc1` [Example 1, N-((1,2,3,5,6,7-Hexahydro-s-indacen-4-yl)carbamoyl)-1-phenyl Methanesulfonamide, Potassium Salt], the half-inhibitory concentration (IC50) at NLRP3 [1] is no more than 5 µM; against NLRP3 [2], no more than 1 µM.
Turning to `CC(C)CS(=O)(=O)NC(=O)Nc1c2c(cc3c1CCC3)CCC2` [Example 2, N-((1,2,3,5,6,7-Hexahydro-s-indacen-4-yl)carbamoyl)-2-methylpropane-1-sulfonamide, Potassium Salt], the IC50 on NLRP3 [2] is no more than 1 µM.
`C=CS(=O)(=O)NC(=O)Nc1c2c(cc3c1CCC3)CCC2` [Example 3, N-((1,2,3,5,6,7-Hexahydro-s-indacen-4-yl)carbamoyl)ethenesulfonamide]: the IC50 is no more than 5 µM on NLRP3 [1] and no more than 1 µM on NLRP3 [2].
On the same counts, the results for `O=C(Nc1c2c(cc3c1CCC3)CCC2)NS(=O)(=O)Cc1cc(Cl)cc(Cl)c1` [Example 4, 1-(3,5-Dichlorophenyl)-N-((1,2,3,5,6,7-hexahydro-s-indacen-4-yl)carbamoyl)methanesulfonamide, Sodium Salt] are greater than 10 µM and no more than 1 µM.
The matching figures for `O=C(Nc1c2c(cc3c1CCC3)CCC2)NS(=O)(=O)Cc1ccc(Cl)cc1` [Example 5, 1-(4-Chlorophenyl)-N-((1,2,3,5,6,7-hexahydro-s-indacen-4-yl)carbamoyl)methanesulfonamide, Sodium Salt]: 5 to 7.5 µM and no more than 1 µM.
The matching figures for `O=C(Nc1c2c(cc3c1CCC3)CCC2)NS(=O)(=O)Cc1ccc(Cl)c(Cl)c1` [Example 6, 1-(3,4-Dichlorophenyl)-N-((1,2,3,5,6,7-hexahydro-s-indacen-4-yl)carbamoyl)methanesulfonamide, Sodium Salt]: greater than 10 µM and no more than 1 µM.
Consider `O=C(Nc1c2c(cc3c1CCC3)CCC2)NS(=O)(=O)Cc1ccc(F)cc1` [Example 7, 1-(4-Fluorophenyl)-N-((1,2,3,5,6,7-hexahydro-s-indacen-4-yl)carbamoyl)methanesulfonamide, Sodium Salt], for which the IC50 at NLRP3 [1] was no more than 5 µM; against NLRP3 [2] it was no more than 1 µM.
The matching figures for `N#Cc1ccc(CS(=O)(=O)NC(=O)Nc2c3c(cc4c2CCC4)CCC3)cc1` [Example 8, 1-(4-Cyanophenyl)-N-((1,2,3,5,6,7-hexahydro-s-indacen-4-yl)carbamoyl)methanesulfonamide, Sodium Salt]: no more than 5 µM and no more than 1 µM.
In the case of `COC(=O)c1ccc(CS(=O)(=O)NC(=O)Nc2c3c(cc4c2CCC4)CCC3)cc1` [Example 9, Methyl 4-((N-((1,2,3,5,6,7-hexahydro-s-indacen-4-yl)carbamoyl)sulfamoyl)methyl)benzoate, Sodium Salt], the IC50 at NLRP3 [1] is no more than 5 µM; against NLRP3 [2] it was no more than 1 µM.
On the same counts, the results for `O=C(Nc1c2c(cc3c1CCC3)CCC2)NS(=O)(=O)Cc1ccc(C(F)(F)F)cc1` [Example 10, N-((1,2,3,5,6,7-Hexahydro-s-indacen-4-yl)carbamoyl)-1-(4-(trifluoromethyl)phenyl)methanesulfonamide, Sodium Salt] are 5 to 7.5 µM and no more than 1 µM.
In the case of `COc1cccc(CS(=O)(=O)NC(=O)Nc2c3c(cc4c2CCC4)CCC3)c1` [Example 11, N-((1,2,3,5,6,7-Hexahydro-s-indacen-4-yl)carbamoyl)-1-(3-methoxyphenyl)methanesulfonamide, Sodium Salt], the 50% inhibitory concentration (IC50) is 7.5 to 10 µM on NLRP3 [1] and no more than 1 µM at NLRP3 [2].
The matching figures for `O=C(Nc1c2c(cc3c1CCC3)CCC2)NS(=O)(=O)Cc1ccc(Cl)cc1F` [Example 12, 1-(4-Chloro-2-fluorophenyl)-N-((1,2,3,5,6,7-hexahydro-s-indacen-4-yl)carbamoyl)methanesulfonamide, Sodium Salt]: greater than 10 µM and no more than 1 µM.
For the compound `O=C(Nc1c2c(cc3c1CCC3)CCC2)NS(=O)(=O)Cc1ccc(Cl)c(F)c1` [Example 13, 1-(4-Chloro-3-fluorophenyl)-N-((1,2,3,5,6,7-hexahydro-s-indacen-4-yl)carbamoyl)methanesulfonamide, Sodium Salt], the IC50 at NLRP3 [1] is greater than 10 µM; against NLRP3 [2] it was no more than 1 µM.
As to `Cc1ccc(CS(=O)(=O)NC(=O)Nc2c3c(cc4c2CCC4)CCC3)cc1` [Example 14, N-((1,2,3,5,6,7-Hexahydro-s-indacen-4-yl)carbamoyl)-1-(p-tolyl)methanesulfonamide, Sodium Salt], the IC50 is 5 to 7.5 µM on NLRP3 [1] and no more than 1 µM on NLRP3 [2].
On the same counts, the results for `O=C(Nc1c2c(cc3c1CCC3)CCC2)NS(=O)(=O)Cc1ccccc1Cl` [Example 15, 1-(2-Chlorophenyl)-N-((1,2,3,5,6,7-hexahydro-s-indacen-4-yl)carbamoyl)methanesulfonamide, Sodium Salt] are greater than 10 µM and no more than 1 µM.
Consider `O=C(Nc1c2c(cc3c1CCC3)CCC2)NS(=O)(=O)Cc1ccccc1C(F)(F)F` [Example 16, N-((1,2,3,5,6,7-Hexahydro-s-indacen-4-yl)carbamoyl)-1-(2-(trifluoromethyl)phenyl)methanesulfonamide, Sodium Salt], for which the IC50 against NLRP3 [2] was no more than 1 µM.
On the same count and under the same terms, the value for `O=C(Nc1c2c(cc3c1CCC3)CCC2)NS(=O)(=O)Cc1ccccc1Br` [Example 17, 1-(2-Bromophenyl)-N-((1,2,3,5,6,7-hexahydro-s-indacen-4-yl)carbamoyl)methanesulfonamide, Sodium Salt] was no more than 1 µM.
Still for that read-out and setting: next, `COC(=O)c1ccccc1CS(=O)(=O)NC(=O)Nc1c2c(cc3c1CCC3)CCC2` [Example 18, Methyl 2-((N-((1,2,3,5,6,7-hexahydro-s-indacen-4-yl)carbamoyl)sulfamoyl)methyl)benzoate]: no more than 1 µM.
`O=C(Nc1c2c(cc3c1CCC3)CCC2)NS(=O)(=O)Cc1cccc(Br)c1` [Example 19, 1-(3-Bromophenyl)-N-((1,2,3,5,6,7-hexahydro-s-indacen-4-yl)carbamoyl)methanesulfonamide, Sodium Salt]: the IC50 was greater than 10 µM on NLRP3 [1] and no more than 1 µM against NLRP3 [2].
Regarding `Cc1cccc(CS(=O)(=O)NC(=O)Nc2c3c(cc4c2CCC4)CCC3)c1` [Example 20, N-((1,2,3,5,6,7-Hexahydro-s-indacen-4-yl)carbamoyl)-1-(m-tolyl)methanesulfonamide, Sodium Salt], the IC50 is 5 to 7.5 µM at NLRP3 [1] and no more than 1 µM on NLRP3 [2].
For `O=C(Nc1c(-c2ccncc2)cc(F)c2c1CCC2)NS(=O)(=O)Cc1ccccc1` [Example 25, N-((7-Fluoro-5-(pyridin-4-yl)-2,3-dihydro-1H-inden-4-yl)carbamoyl)-1-phenylmethanesulfonamide], at NLRP3 [2], the IC50 lay in the range of 2 to 10 µM.
Consider `O=C(Nc1c(-c2ccncc2)cc(F)c2c1CCC2)NS(=O)(=O)CCc1ccccc1` [Example 33, N-((7-Fluoro-5-(pyridin-4-yl)-2,3-dihydro-1H-inden-4-yl)carbamoyl)-2-phenylethanesulfonamide], for which the IC50 at NLRP3 [1] lay within 5 to 7.5 µM.
On to `CC(C)c1cc(F)cc(-c2ccnc(C#N)c2)c1NC(=O)NS(=O)(=O)C(C)c1ccccc1` (stereo not drawn) [Example 34, N-((2-(2-Cyanopyridin-4-yl)-4-fluoro-6-isopropylphenyl)carbamoyl)-1-phenylethanesulfonamide], for which the IC50 on NLRP3 [2] fell in the range of 2 to 10 µM.
